Laboratory results reported in patent US20100178259A1, “REDUCING FIBROSIS USING MATRIX METALLOPROTEINASE INHIBITORS” (The Regents of The University of Michigan, priority 2009, published 2010).
Entries after “also recorded” stand apart in the source; their conditions may differ.

Columns and labels:
MMP-1 = molecular target: T1, MMP-1 (Homo sapiens, UniProt P03956); conditions: in vitro; cited from earlier work
T1 sequence (P03956 100-469): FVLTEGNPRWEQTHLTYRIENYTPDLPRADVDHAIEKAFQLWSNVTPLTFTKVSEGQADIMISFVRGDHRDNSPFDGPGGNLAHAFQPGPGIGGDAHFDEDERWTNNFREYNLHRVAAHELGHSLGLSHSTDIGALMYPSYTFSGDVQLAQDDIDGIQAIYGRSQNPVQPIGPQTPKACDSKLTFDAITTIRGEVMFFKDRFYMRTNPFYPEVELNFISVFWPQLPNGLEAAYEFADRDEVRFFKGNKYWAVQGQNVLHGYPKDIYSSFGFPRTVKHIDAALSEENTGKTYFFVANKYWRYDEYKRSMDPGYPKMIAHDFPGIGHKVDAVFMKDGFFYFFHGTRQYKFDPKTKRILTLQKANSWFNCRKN

[1] = tested on: HRS/J hairless mice skin exposed to UV irradiation; experiment: UV irradiation sunburn/scarring in hairless mice, topical treatment, skin cross-section histology; assay type: in vivo, mouse; conditions: UV 200-400 mJ/square cm, topical 1% MMI270 in 70% ethanol (95%) and 30% propylene glycol daily after UV exposure, compared to untreated irradiated skin (FIG. 2)
Method: The following experiments illustrate embodiments of the present technology. Experimental mice (HRS/J hairless mice) are treated with UV irradiation at a dosage that results in sunburn and consequent scarring of the skin. UV exposure includes daily exposure (Mon-Fri), or 3× per week (Mon, Wed, Fri), at 200-400 mJ/square cm, until scarring occurs, typically after 2-3 weeks. The UVB/A2 source is FS tubes filtered with Kodacel to remove wavelengths below 290 nm. Non-irradiated mice serve as non-wounded controls.
FIG. 1 is a photograph of a tissue cross-section of non-irradiated mouse skin. The outer surface of the skin includes a layer 110 of dead skin cells overtop the epidermis 120. Located beneath the epidermis 120, is a region comprising extracellular matrix 130, which includes collagen and other proteins. A layer of fat cells 140 underlies the extracellular matrix 130 and is followed by muscle 150. Hair follicles 160 can be seen embedded within the extracellular matrix 130 region.
FIG. 2 is a photograph of a tissue cross-section of mouse skin that was exposed to UV irradiation to cause a burn and that was not treated with MMP inhibitor. Morphology of the skin changes in response to the burn wound which can subsequently form into a scar. The outer skin surface and layer 210 of dead skin cells overlies a thickened epidermis 220 followed by a thickened region of extracellular matrix 230. […]

MMP-9 = MMP-9 (Homo sapiens, UniProt P14780); conditions: in vitro; cited from earlier work
MMP-9, sequence (P14780 94-707, species assumed): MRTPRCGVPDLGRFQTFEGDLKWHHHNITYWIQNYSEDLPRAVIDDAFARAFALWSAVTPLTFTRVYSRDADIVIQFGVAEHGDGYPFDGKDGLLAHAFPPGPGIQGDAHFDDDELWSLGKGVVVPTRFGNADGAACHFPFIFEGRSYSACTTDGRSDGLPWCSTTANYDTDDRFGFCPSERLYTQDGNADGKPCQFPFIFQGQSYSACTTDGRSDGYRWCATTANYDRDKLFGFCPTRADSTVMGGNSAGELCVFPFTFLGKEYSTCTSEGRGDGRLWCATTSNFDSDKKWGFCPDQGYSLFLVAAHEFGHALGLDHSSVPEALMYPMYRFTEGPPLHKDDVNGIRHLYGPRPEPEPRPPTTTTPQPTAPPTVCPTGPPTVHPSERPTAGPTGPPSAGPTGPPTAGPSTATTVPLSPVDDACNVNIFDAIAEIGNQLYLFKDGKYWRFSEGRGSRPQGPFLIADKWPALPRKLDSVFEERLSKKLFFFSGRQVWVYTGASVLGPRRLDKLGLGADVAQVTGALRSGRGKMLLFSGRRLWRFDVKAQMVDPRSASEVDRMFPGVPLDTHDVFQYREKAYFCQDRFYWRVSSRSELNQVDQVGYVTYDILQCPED

MMP-2 = molecular target: T2, MMP-2 (Homo sapiens, UniProt P08253); conditions: in vitro; cited from earlier work
T2 sequence (P08253 110-660): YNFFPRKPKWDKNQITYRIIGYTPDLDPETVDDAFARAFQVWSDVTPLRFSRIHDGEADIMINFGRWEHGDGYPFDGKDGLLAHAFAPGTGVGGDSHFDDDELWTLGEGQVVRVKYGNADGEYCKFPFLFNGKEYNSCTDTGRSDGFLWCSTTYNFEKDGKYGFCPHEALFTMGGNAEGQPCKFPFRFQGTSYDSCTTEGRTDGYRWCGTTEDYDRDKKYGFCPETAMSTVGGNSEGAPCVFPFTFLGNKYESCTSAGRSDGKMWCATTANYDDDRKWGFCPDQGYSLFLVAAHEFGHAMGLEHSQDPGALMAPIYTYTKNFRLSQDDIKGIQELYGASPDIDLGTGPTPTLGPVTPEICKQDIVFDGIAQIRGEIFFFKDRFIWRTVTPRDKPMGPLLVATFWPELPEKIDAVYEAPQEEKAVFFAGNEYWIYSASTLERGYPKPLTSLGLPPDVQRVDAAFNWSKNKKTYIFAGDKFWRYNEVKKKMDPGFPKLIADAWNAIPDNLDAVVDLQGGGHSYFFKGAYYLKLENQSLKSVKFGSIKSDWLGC

MMP-3 = MMP-3 (Homo sapiens, UniProt P08254); conditions: in vitro; cited from earlier work
MMP-3, sequence (P08254 100-477, species assumed): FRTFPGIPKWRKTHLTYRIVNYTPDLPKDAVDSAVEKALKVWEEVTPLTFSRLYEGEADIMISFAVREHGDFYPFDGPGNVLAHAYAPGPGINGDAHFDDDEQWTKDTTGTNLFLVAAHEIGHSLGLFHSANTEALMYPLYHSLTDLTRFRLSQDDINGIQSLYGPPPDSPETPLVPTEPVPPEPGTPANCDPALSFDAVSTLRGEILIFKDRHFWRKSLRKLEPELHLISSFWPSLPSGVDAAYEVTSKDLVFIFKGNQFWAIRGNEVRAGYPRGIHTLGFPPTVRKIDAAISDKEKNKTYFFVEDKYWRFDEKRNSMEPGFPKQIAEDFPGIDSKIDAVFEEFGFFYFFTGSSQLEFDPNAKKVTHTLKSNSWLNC

COc1ccc(S(=O)(=O)N(Cc2cccnc2)[C@@H](C(=O)NO)C(C)C)cc1 [MMI270, N-hydroxy-2(R)-[[4-methoxybenzenesulfonyl]-(3-picolyl)amino]-3-methylbutanamide]
concentration inhibiting MMP-1 activity (MMP-1): nanomolar concentrations | expansion and thickening of the epidermis and extracellular matrix [1]: less expansion and thickening of the epidermis and extracellular matrix; also recorded: decrease in thickness of the extracellular matrix | concentration inhibiting MMP-9 activity (MMP-9): nanomolar concentrations | concentration inhibiting MMP-2 activity (MMP-2): nanomolar concentrations | concentration inhibiting MMP-3 activity (MMP-3): nanomolar concentrations
